# Measured values taken from patent publication US20260234115A1, “LIPID COMPOUNDS, COMPOSITIONS, AND USES THEREOF” (Liberate Bio, Inc., priority 2023, published 2026).
# Marks after values point to notes of the source that are not given here.
# Tested on: mouse organs
# Assay: In vivo activity screening in mice: organ mean total flux (p/s) of luciferase activity after injection of F2 LNP pools (Table 6, FIG. 7A-7C)
# Conditions: Mouse 5, dose 0.5 mg/kg, luciferase mRNA
# Experimental: Small rodent biodistribution studies were performed in mice (e.g., C57BL/6J, Balb-c, CD-1, etc.). For evaluating LNP biodistribution and tissue activity upon systemic administration, C57BL/6J mice received dose administration by single intravenous injection via tail vein with LNP formulations (individual or pooled) in PBS, at different dose (0.25-3 mg/kg) levels of firefly luciferase mRNA. At predetermined time points (4-6 hours post-injection), the animals were anesthetized via isoflurane and subjected to in-life imaging sessions for bioluminescence using an In Vivo Imaging System (IVIS). All animals were dosed with D-Luciferin at 15 mg/mL via subcutaneous (SC) injection at 0.2 mL/animal. Animals had their abdomen hair shaved using an animal trimmer. They were then placed so their shaved belly faced up toward the IVIS camera. Whole body imaging sessions were performed 10-15 minutes following D-Luciferin administration.
# For in detail organ distribution and activity of LNP formulations, ex vivo imaging sessions were also performed. All animals received SC D-Luciferin and were then euthanized by isoflurane overdose, followed by cardiac perfusion with saline. Following perfusion, the organs were collected and subjected to IVIS imaging for luminescence within 10-15 minutes of D-Luciferin injection.
# All IVIS images were processed with a computer software to identify the regions of interests for individual organs to detect the total flux (p/s) values as luminescence quantification. Then the total flux values were graphed to evaluate the in vivo activity in each collected organ.
# Small rodent biodistribution studies were performed in mice according to the General Study Protocols in Example 3(a). LNPs incorporating lipid compounds were prepared in Formulation F2, with MC3 as lipid compound (Cayman Chemical) prepared using Formulation F2 for comparison. LNP pools (with firefly luciferase mRNA encapsulated) were injected into mice at varying doses, and organ mean total flux (p/s) results (measuring luciferase activity) were then collected according to Example 3(a).
# LNPs comprising MC3 used as a control and for cross-mouse comparison. Dose is in mg/kg; LC is Lipid Compound according to Table 1.
# Additional screening results for Compounds 7, 13, 14, 26, 33, 38, 39, 40, 48, 60, 61, 89, 103, and 109 in spleen, femur, and muscle are shown in FIG. 7A, FIG. 7B, and FIG. 7C, with MC3 as a used as a control for comparison.
Structure (SMILES),Organ Mean Total Flux Femur,Organ Mean Total Flux Heart,Organ Mean Total Flux Kidney,Organ Mean Total Flux Liver,Organ Mean Total Flux Lung,Organ Mean Total Flux Muscle,Organ Mean Total Flux Pancreas,Organ Mean Total Flux Spleen
"CCCCC/C=C\CCOC(=O)CCCCCCC(=O)OCC(COC(=O)CCCCCCC(=O)OCC/C=C\CCCCC)(COC(=O)CCCCCCC(=O)OCC/C=C\CCCCC)COC(=O)CCC(CCCCCC)OC(=O)OCCCN1CCCC1 (centres unmarked) [Compound 31, O8-[2,2-bis[[8-[(Z)-non-3-enoxy]-8-oxo-octanoyl]oxymethyl]-3-[4-(3-pyrrolidin-1-ylpropoxycarbonyloxy)decanoyloxy]propyl]O1-[(Z)-non-3-enyl]octanedioate]",0.9 p/s (×10^6),0.1 p/s (×10^6),0.1 p/s (×10^6),26.8 p/s (×10^6),1.2 p/s (×10^6),1.0 p/s (×10^6),0.2 p/s (×10^6),2.0 p/s (×10^6)

# Same assay, conditions: Mouse 6, dose 0.5 mg/kg, luciferase mRNA
Structure (SMILES),Organ Mean Total Flux Femur,Organ Mean Total Flux Heart,Organ Mean Total Flux Kidney,Organ Mean Total Flux Liver,Organ Mean Total Flux Lung,Organ Mean Total Flux Muscle,Organ Mean Total Flux Pancreas,Organ Mean Total Flux Spleen
"CCCCC/C=C\CCOC(=O)CCCCCCC(=O)OCC(COC(=O)CCCCCCC(=O)OCC/C=C\CCCCC)(COC(=O)CCCCCCC(=O)OCC/C=C\CCCCC)COC(=O)CCC(CCCCCC)OC(=O)NCCN(C)CC (centres unmarked) [Compound 29, O8-[2-[4-[2-[ethyl(methyl)amino]ethylcarbamoyloxy]decanoyloxymethyl]-3-[8-[(Z)-non-3-enoxy]-8-oxo-octanoyl]oxy-2-[[8-[(Z)-non-3-enoxy]-8-oxooctanoyl]oxymethyl]propyl]O1-[(Z)-non-3-enyl]octanedioate]",4.2 p/s (×10^6),3.9 p/s (×10^6),3.2 p/s (×10^6),1913 p/s (×10^6),11.4 p/s (×10^6),10.3 p/s (×10^6),1.4 p/s (×10^6),3.3 p/s (×10^6)
"CCCCCCCCOC(=O)CCCCCCC(=O)OCC(COC(=O)CCCCCCC(=O)OCCCCCCCC)(COC(=O)CCCCCCC(=O)OCCCCCCCC)COC(=O)CCC(CCCCCC)OC(=O)NCCN1CCCC1 (centres unmarked) [Compound 33, O8-[2,2-bis[(8-octoxy-8-oxo-octanoyl)oxymethyl]-3-[4-(2-pyrrolidin-1-ylethylcarbamoyloxy)decanoyloxy]propyl]O1-octyl octanedioate]",21.3 p/s (×10^6),2.8 p/s (×10^6),3.0 p/s (×10^6),1024 p/s (×10^6),16.9 p/s (×10^6),53.7 p/s (×10^6),9.2 p/s (×10^6),30.1 p/s (×10^6)
"CCCCCCCCOC(=O)CCCCCC(=O)OCC(COC(=O)CCCCCC(=O)OCCCCCCCC)(COC(=O)CCCCCC(=O)OCCCCCCCC)COC(=O)CCC(CCCCCC)OC(=O)NCCN1CCCC1 (centres unmarked) [Compound 34, O7-[2,2-bis[(7-octoxy-7-oxo-heptanoyl)oxymethyl]-3-[4-(2-pyrrolidin-1-ylethylcarbamoyloxy)decanoyloxy]propyl]O1-octyl heptanedioate]",10.5 p/s (×10^6),3.3 p/s (×10^6),6.7 p/s (×10^6),1610 p/s (×10^6),20.2 p/s (×10^6),28.3 p/s (×10^6),12.8 p/s (×10^6),39.4 p/s (×10^6)
"CCCCCCCCCCOC(=O)CCCCCCC(=O)OCC(COC(=O)CCCCCCC(=O)OCCCCCCCCCC)(COC(=O)CCCCCCC(=O)OCCCCCCCCCC)COC(=O)CCC(CCCCCC)OC(=O)NCCN1CCCC1 (centres unmarked) [Compound 35, O8-[2,2-bis[(8-decoxy-8-oxo-octanoyl)oxymethyl]-3-[4-(2-pyrrolidin-1ylethylcarbamoyloxy)decanoyloxy]propyl]O1-decyloctanedioate]",4.2 p/s (×10^6),1.3 p/s (×10^6),1.3 p/s (×10^6),850.3 p/s (×10^6),11.0 p/s (×10^6),15.5 p/s (×10^6),2.5 p/s (×10^6),5.4 p/s (×10^6)
"CCCCCCCCCCOC(=O)CCCCCC(=O)OCC(COC(=O)CCCCCC(=O)OCCCCCCCCCC)(COC(=O)CCCCCC(=O)OCCCCCCCCCC)COC(=O)CCC(CCCCCC)OC(=O)NCCN1CCCC1 (centres unmarked) [Compound 36, O7-[2,2-bis[(7-decoxy-7-oxo-heptanoyl)oxymethyl]-3-[4-(2-pyrrolidin-1-ylethylcarbamoyloxy)decanoyloxy]propyl]O1-decyl heptanedioate]",3.6 p/s (×10^6),3.7 p/s (×10^6),2.7 p/s (×10^6),2330 p/s (×10^6),16.5 p/s (×10^6),6.0 p/s (×10^6),1.2 p/s (×10^6),6.1 p/s (×10^6)
"CCCCCCCC(C)OC(=O)CCCCCC(=O)OCC(COC(=O)CCCCCC(=O)OC(C)CCCCCCC)(COC(=O)CCCCCC(=O)OC(C)CCCCCCC)COC(=O)CCC(CCCCCC)OC(=O)NCCN1CCCC1 (centres unmarked) [Compound 38, O1-[2,2-bis[[7-(1-methyloctoxy)-7-oxo-heptanoyl]oxymethyl]-3-[4-(2-pyrrolidin-1-ylethylcarbamoyloxy)decanoyloxy]propyl]O7-(1-methyloctyl) heptanedioate]",9.8 p/s (×10^6),11.0 p/s (×10^6),8.1 p/s (×10^6),6770 p/s (×10^6),33.3 p/s (×10^6),23.5 p/s (×10^6),2.6 p/s (×10^6),27.2 p/s (×10^6)
"CCCCCCCCC(C)OC(=O)CCCCCC(=O)OCC(COC(=O)CCCCCC(=O)OC(C)CCCCCCCC)(COC(=O)CCCCCC(=O)OC(C)CCCCCCCC)COC(=O)CCC(CCCCCC)OC(=O)NCCN1CCCC1 (centres unmarked) [Compound 40, O1-[2,2-bis[[7-(1-methylnonoxy)-7-oxo-heptanoyl]oxymethyl]-3-[4-(2-pyrrolidin-1-ylethylcarbamoyloxy)decanoyloxy]propyl]O7-(1-methylnonyl)heptanedioate]",10.9 p/s (×10^6),6.0 p/s (×10^6),5.1 p/s (×10^6),3230 p/s (×10^6),27.7 p/s (×10^6),34.4 p/s (×10^6),4.6 p/s (×10^6),6.4 p/s (×10^6)

# Same assay, conditions: Mouse 11, dose 0.5 mg/kg, luciferase mRNA
Structure (SMILES),Organ Mean Total Flux Femur,Organ Mean Total Flux Heart,Organ Mean Total Flux Kidney,Organ Mean Total Flux Liver,Organ Mean Total Flux Lung,Organ Mean Total Flux Muscle,Organ Mean Total Flux Pancreas,Organ Mean Total Flux Spleen
"CCCCCCCC(C)OC(=O)CCCCCCC(=O)OCC(COC(=O)CCCCCCC(=O)OC(C)CCCCCCC)(COC(=O)CCCCCCC(=O)OC(C)CCCCCCC)COC(=O)CCC(CCCCCC)OC(=O)NCCN1CCCC1 (centres unmarked) [Compound 37, O1-[2,2-bis[[8-(1-methyloctoxy)-8-oxo-octanoyl]oxymethyl]-3-[4-(2-pyrrolidin-1-ylethylcarbamoyloxy)decanoyloxy]propyl]O8-(1-methyloctyl) octanedioate]",2.2 p/s (×10^6),1.9 p/s (×10^6),0.8 p/s (×10^6),1737 p/s (×10^6),10.5 p/s (×10^6),5.2 p/s (×10^6),0.6 p/s (×10^6),2.5 p/s (×10^6)
"CCCCCCCCC(C)OC(=O)CCCCCCC(=O)OCC(COC(=O)CCCCCCC(=O)OC(C)CCCCCCCC)(COC(=O)CCCCCCC(=O)OC(C)CCCCCCCC)COC(=O)CCC(CCCCCC)OC(=O)NCCN1CCCC1 (centres unmarked) [Compound 39, O1-[2,2-bis[[8-(1-methylnonoxy)-8-oxo-octanoyl]oxymethyl]-3-[4-(2-pyrrolidin-1-ylethylcarbamoyloxy)decanoyloxy]propyl]O8-(1-methylnonyl) octanedioate]",2.6 p/s (×10^6),6.5 p/s (×10^6),2.3 p/s (×10^6),3390 p/s (×10^6),19.6 p/s (×10^6),11.0 p/s (×10^6),1.1 p/s (×10^6),2.9 p/s (×10^6)
